Source: patent US20190185544A1, “COMPOSITIONS AND METHODS OF MODULATING ABETA PROTEIN” (University of South Florida, priority 2016, published 2019)
“Also recorded” adds a separate entry of the source.

Tests used:
Assay type in all cases: cell-based, Chinese hamster
[1] = tested on: p44/42 MAPK; assay: p44/42 MAPK phosphorylation in CHO/APPwt cell lysates (WB); settings: peptides 10 μM or apoE 10 μg/mL, 0 to 180 min
[2] = tested on: CHO/APPwt cells; assay: Aβ production in CHO/APPwt cells, treatment alone (Aβ1-40, 42 ELISA, 82E1 WB); settings: for Aβ production (Aβ1-40, 42): serum-free medium, 2 h (ELISA) or 16 h (WB)
Protocol: Chinese hamster ovary (CHO) cells overexpressing human wild-type amyloid precursor protein (APPwt) (CHO/APPwt cells) were cultured in 96-well plate at about 2×10^4/well in Dulbecco's modified Eagle's medium (DMEM) with 10% fetal bovine serum (FBS), 1 mM sodium pyruvate and 100 U/mL of penicillin/streptomycin for 18 hours.
CHO/APPwt cells were cultured in 96-well plate (about 2×10^4/well) in serum-free medium and treated with ApoE LDLR, FlagApoE LDLR (SEQ ID NO.: 1 with an N-terminal FLAG tag), BiotinApo LDLR (SEQ ID NO.: 1 with an N-terminal Biotin) and 3 lysinesApoE LDLR (3KApoE LDLR (SEQ ID NO.: 2)) at indicated doses for about 2 hours.
The conditioned media and cell lysates were prepared, and subjected to Aβ ELISA and protein assay.
CHO cells overexpressing human wild-type APP (CHO/APPwt) cells were cultured in 96-well plate at 2×10^4/well in Dulbecco's modified Eagle's medium (DMEM) with 10% fetal bovine serum (FBS), 1 mM sodium pyruvate and 100 U/mL of penicillin/streptomycin for 18 hours. […] 82E1 WB analyses as shown below the Aβ ELISA result histograms. The Aβ ELISA results are representative of three independent experiments with each condition triplicated and presented as mean±SD.
(residues 133-152, SEQ ID NO: 1)] as indicated for 2 and 16 hours (h). The conditioned media and cell lysates were analyzed by Aβ1-40, 42 ELISA (FIG. 10A), 82E1 WB analysis (FIG. 10B) and protein assay, respectively. In addition, (FIG. 10C) CHO/APPwt cells were cultured in 96-well plate (2×10^4/well) in serum-free DMEM and treated with FlagApoE-LBDP, BiotinApoE-LBDP and 3 lysineApoE-LBDP (3KApoE-LBDP) in comparing to ApoE-LBDP at indicated doses for 2 hours (h). […] (SEQ ID NO: 2); […]-[…] (SEQ ID NO: 10); Biotin-[…] (SEQ ID NO: 1 with an N-Terminal Biotin).
(§1) CHO cells engineered to express human wild-type APP (CHO/APPwt) or Swedish mutant APP (CHO/APPswe) were obtained. These cells were cultured in 96 or 24 well plates at 4×10^4 or 2×10^5 cells/well, respectively, in Dulbecco's modified Eagle's medium (DMEM) with 10% fetal bovine serum, 1 mM sodium pyruvate and 100 U/mL of penicillin/streptomycin (Invitrogen, Thermo Fisher Scientific). In addition, murine N2a cells transfected with APPwt (N2a/APPwt were obtained), SH-SY5Y cells transfected with APPswe and wild-type SH-SY5Y cells (ATCC, Manassas, Va.) were cultured as previously described^42. Primary hN2TM human neurons (Neuromics, Edina, Minn.) were cultured in hN2TM human neuron culture media and primary HCN2 human neurons (ATCC) were cultured in DMEM with 4 mM L-glutamine adjusted to contain 1.5 g/L sodium bicarbonate, 4.5 g/L glucose, fetal bovine serum (10%).
Aβ1-40, 42 and sAPPα from cell and brain homogenates were detected by Aβ1-40, 42 and sAPPα ELISA kits (IBL-America), strictly following the manufacturer's instructions^43,44.
WB analyses were performed as previously described^43,44. Briefly, 10% bicine/tris gel containing 8 M urea was used for separation of Aβ1-40, 42 species from brain homogenates or CHO cell conditioned media or lysates, followed by transfer to 0.2 μm pore-size nitrocellulose membrane (Bio-Rad, Hercules, Calif.). The membrane was boiled in PBS for 3 to 5 min before blocking to enhance sensitivity and then incubated with 82E1. For all other proteins detected by WB, 10% tris-SDS gels were used. Densitometry analysis was performed as previously described using a FluorS Multiimager with Quantity One™ software 43.

[3] = tested on: CHO/APPwt cells; assay: APP processing and cell surface protein expression in CHO/APPwt cells (ELISA, WB, biotinylation, flow cytometry, confocal microscopy)
Protocol: In addition, full-length APP (f-APP, short and long exp, exposure), α/β-CTF and total APP in cell lysates were analyzed by WB using anti-C-terminal APP750/70 (pC-APP, left panel, FIG. 23C) and anti-N-terminal APP antibody (6E10, right panel, FIG. 23C). Cell lysates were also biotinylated and immunoprecipitated using Neutravidin beads and intracellular proteins obtained by Neutravidin depletion (intra) and cell surface proteins obtained by Neutravidin precipitation (cell surf) were analyzed for f-APP, LDLR and LRP1 by WB using 6E10, anti-LDLR and anti-LRP1 (FIG. 23D). Band density ratios of cell surf or intra to total f-APP was determined by densitometry analysis (FIG. 23E). Cellular membrane associated full-length APP was analyzed by flow cytometry and presented as means±s.d. median FL-1-A (FIG. 23F). […] Asterisk indicates P<0.05 compared with Ctrl as determined by t test.
In addition, some of the cells were biotinylated, cell lysates were immunoprecipitated using Neutravidin beads and cell surface (cell surf) proteins obtained by Neutravidin precipitation, intracellular (intra) proteins obtained by Neutravidin depletion and total proteins were analyzed for full-length APP by WB using pC-APP (pAPP751/770) (FIG. 27B). […]

[4] = tested on: CHO/APPswe cells; assay: Aβ and β-CTF in CHO/APPwt compared with CHO/APPswe cells; settings: apoE4 0, 5, 10 μg/mL or 6KApoEp 0, 5, 10 μM, 2 h, serum-free medium
Protocol: as §1

Substance: ApoE3: human recombinant apolipoprotein E3 protein (BioVision)
- p44/42 MAPK phosphorylation [1]: activated both p44/42 and p38 MAPK phosphorylation
- sAPPα secretion [2]: decreased sAPPα secretion
- Aβ production (Aβ1-40, 42) [2]: markedly promote amyloid β protein (Aβ) production

Substance: ApoE4: human recombinant apolipoprotein E4 protein (BioVision)
- Aβ, β-CTF and sAPPα levels ([3]; 6KApoEp 10 μM, apoE4 10 μg/mL, 2 h): markedly increased Aβ and β-CTF levels, while reducing sAPPα levels
- cell surface protein levels of LDLR or LRP1 ([3]; absence or presence of β- or γ-secretase inhibitors): did not alter cell surface protein levels of LDLR or LRP1
- Aβ and β-CTF levels in CHO/APPwt compared with CHO/APPswe cells [4]: enhanced Aβ and β-CTF levels much more in CHO/APPwt cells compared with CHO cells overexpressing APP with the Swedish mutation
- p44/42 MAPK phosphorylation [1]: activated both p44/42 and p38 MAPK phosphorylation
- sAPPα secretion [2]: decreased sAPPα secretion
- Aβ production (Aβ1-40, 42) [2]: increased Aβ1-40, 42 production; also recorded: markedly promote amyloid β protein (Aβ) production
